The source of these data is US20080234263A1, “Quinazoline Derivatives” (priority 2003, published 2008).

One experiment addresses T1, EGFR tyrosine kinase (Homo sapiens, UniProt P00533).
T1 construct: Recombinant intracellular fragments of EGFR, erbB2 and erbB4; made in house; host or cells: baculovirus/Sf21 insect cells (cleared lysate used)
Nature of the experiment: Protein tyrosine kinase phosphorylation assay, Test (a). To be noted: recombinant intracellular fragment of EGFR, ATP at Km concentration; read-out: IC50 (nM) Test (a) (Inhibition of EGFR tyrosine kinase protein phosphorylation). Format: biochemical. The procedure: Recombinant intracellular fragments of EGFR, erbB2 and erbB4 (accession numbers X00588, X03363 and L07868 respectively) were cloned and expressed in the baculovirus/Sf21 system. Lysates were prepared from these cells by treatment with ice-cold lysis buffer (20 mM N-2-hydroxyethylpiperizine-N′-2-ethanesulfonic acid (HEPES) pH7.5, 150 mM NaCl, 10% glycerol, 1% Triton X-100, 1.5 mM MgCl2, 1 mM ethylene glycol-bis(β-aminoethyl ether) N′,N′,N′,N′-tetraacetic acid (EGTA), plus protease inhibitors and then cleared by centrifugation.
Specifically, Maxisorb™ 96-well immunoplates were coated with synthetic peptide (0.2 μg of peptide in a 100 μl phosphate buffered saline (PBS) solution and incubated at 4° C. overnight).
The immobilised phospho-peptide product of the reaction was detected by immunological methods. Firstly, plates were incubated for 90 minutes at room temperature with anti-phosphotyrosine primary antibodies that were raised in the mouse (4G10 from Upstate Biotechnology). Following extensive washing, plates were treated with Horseradish Peroxidase (HRP) conjugated sheep anti-mouse secondary antibody (NXA931 from Amersham) for 60 minutes at room temperature.
Kinase inhibition for a given compound was expressed as an IC50 value. […] The range of phosphorylation was calculated from the positive (vehicle plus ATP) and negative (vehicle minus ATP) control values.

In experiment [1] the test system is KB cells (human naso-pharangeal carcinoma cells). Nature of the experiment: EGFR driven KB cell proliferation assay, Test (b). The format is cell-based. The settings on record: 96 h, EGF 1 ng/ml, incubation for 4 days, MTT. The protocol:
This assay measures the ability of a test compound to inhibit the proliferation of KB cells (human naso-pharangeal carcinoma obtained from the American Type Culture Collection (ATCC).
Following adhesion to the plate, the cells are treated with or without EGF (final concentration of 1 ng/ml) and with or without compound at a range of concentrations in dimethylsulfoxide (DMSO) (0.1% final) before incubation for 4 days. Following the incubation period, cell numbers were determined by addition of 50 μl of 3-(4,5-Dimethylthiazol-2-yl)-2,5-diphenyltetrazolium bromide ([…]) (stock 5 mg/ml) for 2 hours. MTT solution was then tipped off, the plate gently tapped dry and the cells dissolved upon the addition of 100 μl of DMSO.
Absorbance of the solubilised cells was read at 540 nm using a Molecular Devices ThermoMax microplate reader. Inhibition of proliferation was expressed as an IC50 value. […] The range of proliferation was calculated from the positive (vehicle plus EGF) and negative (vehicle minus EGF) control values.

T1 sequence (P00533 669-1210 limits assumed): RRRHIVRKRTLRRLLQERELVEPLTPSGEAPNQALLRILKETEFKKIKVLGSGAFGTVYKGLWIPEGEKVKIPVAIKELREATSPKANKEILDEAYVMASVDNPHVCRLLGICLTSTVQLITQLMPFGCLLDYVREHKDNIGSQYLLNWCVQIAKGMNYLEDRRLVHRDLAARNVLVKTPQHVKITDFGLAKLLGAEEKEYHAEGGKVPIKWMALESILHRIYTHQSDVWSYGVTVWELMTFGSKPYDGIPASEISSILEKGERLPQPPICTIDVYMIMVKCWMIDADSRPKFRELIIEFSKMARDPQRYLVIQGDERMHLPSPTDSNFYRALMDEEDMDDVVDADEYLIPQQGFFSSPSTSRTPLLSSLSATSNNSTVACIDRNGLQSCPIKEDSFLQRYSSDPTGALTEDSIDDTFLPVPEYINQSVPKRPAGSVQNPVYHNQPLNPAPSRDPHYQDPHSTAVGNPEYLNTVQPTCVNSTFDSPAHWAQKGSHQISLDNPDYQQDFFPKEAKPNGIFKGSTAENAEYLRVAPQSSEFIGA

As to `COc1cc2ncnc(Nc3ccc(F)c(Cl)c3)c2cc1CN1CCC[C@@H]1C(=O)NCC#N` [Example 20, 1-({4-[(3-Chloro-4-fluorophenyl)amino]-7-methoxyquinazolin-6-yl}methyl)-N-(cyanomethyl)-D-prolinamide], the IC50 is 64 nM at EGFR tyrosine kinase and 143 nM in experiment [1].
On the same counts, the results for `COc1cc2ncnc(Nc3cccc(Cl)c3F)c2cc1CN1CSC[C@H]1C(N)=O` [Example 24, (4R)-3-({4-[(3-Chloro-2-fluorophenyl)amino]-7-methoxyquinazolin-6-yl}methyl)-1,3-thiazolidine-4-carboxamide] are 20 nM and 50 nM.
For `COCCN1CCN(Cc2cc3c(Nc4cccc(Cl)c4F)ncnc3cc2OC)C(C(N)=O)C1` (stereo not drawn) [Example 37, 1-({4-[(3-Chloro-2-fluorophenyl)amino]-7-methoxyquinazolin-6-yl}methyl)-4-(2-methoxyethyl)piperazine-2-carboxamide] the same measures were 67 nM and 160 nM.
